Source: BindingDB's records for doi:10.1021/jm950721m (Warner-Lambert, 1996)

What was measured:
[1] = Compound was evaluated for effective concentration […] for Dopamine receptor D2 mitogenesis. (95% confidence intervals)
[2] = Binding affinity to rat Dopamine receptor D3 expressed in CHO cells was determined using [125 I] iodosulpride as radioligand

Compound | EC50 [1] [nM] | Ki [2] [nM]
Nc1ccc(C#CCCN2CC=C(c3ccccc3)CC2)cc1 [4-[4-(4-Phenyl-3,6-dihydro-2H-pyridin-1-yl)-but-1-ynyl]-phenylamine] | 0.5 | 
Nc1cccc(C#CCCN2CC=C(c3ccccc3)CC2)c1 [3-[4-(4-Phenyl-3,6-dihydro-2H-pyridin-1-yl)-but-1-ynyl]-phenylamine] | 9.8 | 0.36
